System: MV-4-11 cells
Assay: Gene expression microarray analysis (Affymetrix PrimeView) and GSEA
Format: cell-based, human
Parameters: RFU PODN (11730768_x_at) / Fold change /veh PODN (11730768_x_at) / RFU LINC00158 (11744669_a_at) / Fold change /veh LINC00158 (11744669_a_at) / RFU DUSP10 (11751237_a_at) / Fold change /veh DUSP10 (11751237_a_at) / RFU ID3 (11757404_x_at) / Fold change /veh ID3 (11757404_x_at) / RFU PLEKHG5 (11737974_s_at) / Fold change /veh PLEKHG5 (11737974_s_at) / RFU LRRC4B (11730491_at) / Fold change /veh LRRC4B (11730491_at) / RFU GIMAP4 (11747438_a_at) / Fold change /veh GIMAP4 (11747438_a_at) / RFU KRT8 (11758183_x_at) / Fold change /veh KRT8 (11758183_x_at) / RFU CNN1 (11734310_a_at) / Fold change /veh CNN1 (11734310_a_at) / RFU VPS37D (11726825_at) / Fold change /veh VPS37D (11726825_at) / RFU C10orf10 (11716522_x_at) / Fold change /veh C10orf10 (11716522_x_at) / RFU KIR2DL2 /// KIR2DL4 /// KIR2DL5A /// KIR2DL5B /// KIR2DS1 /// KIR2DS2 /// KIR2DS3 /// KIR2DS4 /// KIR3DL3 /// KIR3DL3 /// KIR3DS1 (11738374_at) / Fold change /veh KIR2DL2 /// KIR2DL4 /// KIR2DL5A /// KIR2DL5B /// KIR2DS1 /// KIR2DS2 /// KIR2DS3 /// KIR2DS4 /// KIR3DL3 /// KIR3DL3 /// KIR3DS1 (11738374_at) / RFU C1QL1 (11718748_at) / Fold change /veh C1QL1 (11718748_at) / RFU TMPRSS4 (11747572_a_at) / Fold change /veh TMPRSS4 (11747572_a_at) / RFU HAMP (11756126_x_at) / Fold change /veh HAMP (11756126_x_at) / RFU RNFT2 (11725882_a_at) / Fold change /veh RNFT2 (11725882_a_at) / RFU NR4A2 (11747474_a_at) / Fold change /veh NR4A2 (11747474_a_at) / RFU ABCC12 (11746883_a_at) / Fold change /veh ABCC12 (11746883_a_at) / RFU TMEM136 (11760407_x_at) / Fold change /veh TMEM136 (11760407_x_at) / RFU CLDN22 /// WWC2 (11732394_at) / Fold change /veh CLDN22 /// WWC2 (11732394_at) / RFU HLA-DPB1 (11760878_x_at) / Fold change /veh HLA-DPB1 (11760878_x_at) / RFU SPINT1 (11716480_a_at) / Fold change /veh SPINT1 (11716480_a_at) / RFU GAP43 (11754022_s_at) / Fold change /veh GAP43 (11754022_s_at) / RFU A4GNT (11735810_at) / Fold change /veh A4GNT (11735810_at) / RFU PRB3 (11715151_x_at) / Fold change /veh PRB3 (11715151_x_at) / RFU TUBB4B (11761932_at) / Fold change /veh TUBB4B (11761932_at) / RFU CAPN14 (11732068_a_at) / Fold change /veh CAPN14 (11732068_a_at) / RFU TMCC2 (11721928_a_at) / Fold change /veh TMCC2 (11721928_a_at) / RFU IRGQ (11745062_a_at) / Fold change /veh IRGQ (11745062_a_at) / RFU FAM174B (11720279_a_at) / Fold change /veh FAM174B (11720279_a_at) / RFU TMPRSS4 (11748680_a_at) / Fold change /veh TMPRSS4 (11748680_a_at) / RFU FAM212B (11763350_a_at) / Fold change /veh FAM212B (11763350_a_at) / RFU PLEKHG5 (11743358_a_at) / Fold change /veh PLEKHG5 (11743358_a_at) / RFU ZSCAN30 (11745921_a_at) / Fold change /veh ZSCAN30 (11745921_a_at) / RFU CMKLR1 (11741424_a_at) / Fold change /veh CMKLR1 (11741424_a_at) / RFU LOC101060620 /// MAPK8IP1 (11723275_at) / Fold change /veh LOC101060620 /// MAPK8IP1 (11723275_at) / RFU SPTSSB (11747773_x_at) / Fold change /veh SPTSSB (11747773_x_at) / RFU PRSS12 (11739890_at) / Fold change /veh PRSS12 (11739890_at) / RFU BIN1 (11741810_x_at) / Fold change /veh BIN1 (11741810_x_at) / RFU WNT11 (11732464_a_at) / Fold change /veh WNT11 (11732464_a_at) / RFU C10orf10 (11716521_a_at) / Fold change /veh C10orf10 (11716521_a_at) / RFU C5orf56 (11738089_at) / Fold change /veh C5orf56 (11738089_at) / RFU CYB561 (11721691_x_at) / Fold change /veh CYB561 (11721691_x_at) / RFU ANKRD19P (11752326_a_at) / Fold change /veh ANKRD19P (11752326_a_at) / RFU OR2T12 /// OR2T33 /// OR2T8 (11738714_s_at) / Fold change /veh OR2T12 /// OR2T33 /// OR2T8 (11738714_s_at) / RFU VCAN (11748164_a_at) / Fold change /veh VCAN (11748164_a_at) / RFU JSRP1 (11732532_at) / Fold change /veh JSRP1 (11732532_at) / RFU KRTAP10-11 (11738290_x_at) / Fold change /veh KRTAP10-11 (11738290_x_at) / RFU MYO3A (11730013_a_at) / Fold change /veh MYO3A (11730013_a_at) / RFU EBF3 (11725865_a_at) / Fold change /veh EBF3 (11725865_a_at) / RFU CAMK2N1 (11719241_x_at) / Fold change /veh CAMK2N1 (11719241_x_at) / RFU C5orf56 (11738088_a_at) / Fold change /veh C5orf56 (11738088_a_at) / RFU OLFML3 (11715873_a_at) / Fold change /veh OLFML3 (11715873_a_at) / RFU LOC100653217 /// NTM (11731650_a_at) / Fold change /veh LOC100653217 /// NTM (11731650_a_at) / RFU MAPK11 (11762145_a_at) / Fold change /veh MAPK11 (11762145_a_at) / RFU FIZ1 (11724087_x_at) / Fold change /veh FIZ1 (11724087_x_at) / RFU OASL (11726364_x_at) / Fold change /veh OASL (11726364_x_at) / RFU SOX15 (11748057_x_at) / Fold change /veh SOX15 (11748057_x_at) / RFU CD79A (11719716_a_at) / Fold change /veh CD79A (11719716_a_at) / RFU HIST1H1D (11736915_at) / Fold change /veh HIST1H1D (11736915_at) / RFU CASKIN2 (11723855_a_at) / Fold change /veh CASKIN2 (11723855_a_at) / RFU LOC730098 (11760151_x_at) / Fold change /veh LOC730098 (11760151_x_at) / RFU OR4N2 (11742367_at) / Fold change /veh OR4N2 (11742367_at) / RFU PRRT2 (11749266_a_at) / Fold change /veh PRRT2 (11749266_a_at) / RFU SNX32 (11753110_a_at) / Fold change /veh SNX32 (11753110_a_at) / RFU CDHR5 (11726645_a_at) / Fold change /veh CDHR5 (11726645_a_at) / RFU RCAN1 (11760418_a_at) / Fold change /veh RCAN1 (11760418_a_at) / RFU FAM167A (11723789_a_at) / Fold change /veh FAM167A (11723789_a_at) / RFU FAM26E (11764081_at) / Fold change /veh FAM26E (11764081_at) / RFU ISYNA1 (11749810_s_at) / Fold change /veh ISYNA1 (11749810_s_at) / RFU ACY1 (11761880_at) / Fold change /veh ACY1 (11761880_at) / RFU 11764098_at / Fold change /veh 11764098_at / RFU SAMD14 (11745864_x_at) / Fold change /veh SAMD14 (11745864_x_at) / RFU NPB (11741838_a_at) / Fold change /veh NPB (11741838_a_at) / RFU TMPRSS6 (11731388_a_at) / Fold change /veh TMPRSS6 (11731388_a_at) / RFU KRTAP10-2 (11738614_at) / Fold change /veh KRTAP10-2 (11738614_at) / RFU ARHGAP8 /// PRR5-ARHGAP8 (11727945_x_at) / Fold change /veh ARHGAP8 /// PRR5-ARHGAP8 (11727945_x_at) / RFU KRTAP5-7 /// NADSYN1 (11734609_at) / Fold change /veh KRTAP5-7 /// NADSYN1 (11734609_at) / RFU RASL12 (11751679_a_at) / Fold change /veh RASL12 (11751679_a_at) / RFU CDKN2B (11736163_a_at) / Fold change /veh CDKN2B (11736163_a_at) / RFU PRF1 (11729649_at) / Fold change /veh PRF1 (11729649_at) / RFU, ZNF638 /// ZNF638-IT1 / Fold change vs veh, ZNF638 /// ZNF638-IT1 / RFU, PANK3 / Fold change vs veh, PANK3 / RFU, SH3YL1 / Fold change vs veh, SH3YL1 / RFU, ZEB2 / Fold change vs veh, ZEB2 / RFU, NRIP1 / Fold change vs veh, NRIP1 / RFU, PTTG1IP / Fold change vs veh, PTTG1IP / RFU, CAPN2 / Fold change vs veh, CAPN2 / RFU, MED14 / Fold change vs veh, MED14 / RFU, SNORA58 / Fold change vs veh, SNORA58 / RFU, C1orf63 / Fold change vs veh, C1orf63 / RFU, LRRFIP1 / Fold change vs veh, LRRFIP1 / RFU, NDUFAF7 / Fold change vs veh, NDUFAF7 / RFU, SLC12A2 / Fold change vs veh, SLC12A2 / RFU, IBTK / Fold change vs veh, IBTK / RFU, ESF1 / Fold change vs veh, ESF1 / Fold change vs veh, TMEM50B / RFU, TAOK1 / Fold change vs veh, TAOK1 / RFU, ACBD3 / Fold change vs veh, ACBD3 / RFU, TMA16 / Fold change vs veh, TMA16 / RFU, RWDD3 / Fold change vs veh, RWDD3 / RFU, BCAT1 / Fold change vs veh, BCAT1 / RFU, EDEM3 / Fold change vs veh, EDEM3 / RFU, TMEM33 / Fold change vs veh, TMEM33 / RFU, WDR75 / Fold change vs veh, WDR75 / RFU, AHCTF1 / Fold change vs veh, AHCTF1 / RFU, TFRC / Fold change vs veh, TFRC / RFU, ZDHHC17 / Fold change vs veh, ZDHHC17 / RFU, NOM1 / Fold change vs veh, NOM1 / RFU, ARL8B / Fold change vs veh, ARL8B / RFU, ZBTB11 / Fold change vs veh, ZBTB11 / RFU, TAMM41 / Fold change vs veh, TAMM41 / RFU, KIAA1704 /// LOC100996395 / Fold change vs veh, KIAA1704 /// LOC100996395 / RFU, ING1 / Fold change vs veh, ING1 / RFU, TRMT61B / Fold change vs veh, TRMT61B / RFU, FUBP3 / Fold change vs veh, FUBP3 / RFU, TP53 / Fold change vs veh, TP53 / RFU, TNKS2 / Fold change vs veh, TNKS2 / RFU, ZFP14 / Fold change vs veh, ZFP14 / RFU, ACTR2 / Fold change vs veh, ACTR2 / RFU, PPP3R1 / Fold change vs veh, PPP3R1 / RFU, PIK3R1 / Fold change vs veh, PIK3R1 / RFU, HNRNPA1 / Fold change vs veh, HNRNPA1 / RFU, RNF170 / Fold change vs veh, RNF170 / RFU, ZNF28 / Fold change vs veh, ZNF28 / RFU, RNGTT / Fold change vs veh, RNGTT / RFU, OGT / Fold change vs veh, OGT / RFU, BRD1 / Fold change vs veh, BRD1 / RFU, MARS / Fold change vs veh, MARS / RFU, ZNF655 / Fold change vs veh, ZNF655 / RFU, FAHD1 / Fold change vs veh, FAHD1 / RFU, BDP1 / Fold change vs veh, BDP1 / RFU, LRRCC1 / Fold change vs veh, LRRCC1 / RFU, ARID1A / Fold change vs veh, ARID1A / RFU, ZNF146 / Fold change vs veh, ZNF146 / RFU, ZNF330 / Fold change vs veh, ZNF330 / RFU, GPN3 / Fold change vs veh, GPN3 / RFU, C9orf123 / Fold change vs veh, C9orf123 / RFU, N4BP2L2 / Fold change vs veh, N4BP2L2 / RFU, ARFIP1 / Fold change vs veh, ARFIP1 / RFU, FAM179B / Fold change vs veh, FAM179B / RFU, BCL10 / Fold change vs veh, BCL10 / RFU, UHRF1BP1L / Fold change vs veh, UHRF1BP1L / RFU, BET1 / Fold change vs veh, BET1 / RFU, CNOT2 / Fold change vs veh, CNOT2 / RFU, ZNF268 / Fold change vs veh, ZNF268 / Fold change vs veh, ZNF507 / RFU, DGCR2 / Fold change vs veh, DGCR2 / RFU, WDSUB1 / Fold change vs veh, WDSUB1 / Fold change vs veh, HSP90B1 /// MIR3652 / RFU, ADSS / Fold change vs veh, ADSS / RFU, GK / Fold change vs veh, GK / RFU, ZNF148 / Fold change vs veh, ZNF148 / RFU, TAF9 / Fold change vs veh, TAF9 / RFU, SLC1A5 / Fold change vs veh, SLC1A5 / RFU, SLMO2 / Fold change vs veh, SLMO2 / RFU, ABCC4 / Fold change vs veh, ABCC4 / RFU, LOC101060439 /// RAP1B / Fold change vs veh, LOC101060439 /// RAP1B / RFU, RFX7 / Fold change vs veh, RFX7 / RFU, GTPBP10 / Fold change vs veh, GTPBP10 / RFU, CNEP1R1 / Fold change vs veh, CNEP1R1 / RFU, BIVM-ERCC5 /// ERCC5 / Fold change vs veh, BIVM-ERCC5 /// ERCC5 / RFU, ILF3 / Fold change vs veh, ILF3 / RFU 11762660_at / Fold change /veh 11762660_at / RFU VCAN (11757783_s_at) / Fold change /veh VCAN (11757783_s_at) / RFU DDX43 (11728927_at) / Fold change /veh DDX43 (11728927_at) / RFU KRT8 (11758188_x_at) / Fold change /veh KRT8 (11758188_x_at) / RFU NKD1 (11759106_at) / Fold change /veh NKD1 (11759106_at) / RFU SRD5A1 (11742802_a_at) / Fold change /veh SRD5A1 (11742802_a_at) / RFU TPSAB1 /// TPSB2 (11721975_s_at) / Fold change /veh TPSAB1 /// TPSB2 (11721975_s_at) / RFU GSTM3 (11746129_a_at) / Fold change /veh GSTM3 (11746129_a_at) / RFU IL23R (11737362_x_at) / Fold change /veh IL23R (11737362_x_at) / RFU TMEM51 (11727254_a_at) / Fold change /veh TMEM51 (11727254_a_at) / RFU PIWIL2 (11732686_x_at) / Fold change /veh PIWIL2 (11732686_x_at) / RFU ORM1 (11744905_x_at) / Fold change /veh ORM1 (11744905_x_at) / RFU CCDC152 (11743942_at) / Fold change /veh CCDC152 (11743942_at) / RFU ECM1 (11717891_a_at) / Fold change /veh ECM1 (11717891_a_at) / RFU IL23R (11748794_a_at) / Fold change /veh IL23R (11748794_a_at) / RFU TNFAIP8L3 (11732012_x_at) / Fold change /veh TNFAIP8L3 (11732012_x_at) / RFU MBOAT4 (11741988_at) / Fold change /veh MBOAT4 (11741988_at) / RFU 11764193_at / Fold change /veh 11764193_at / RFU TMEM53 (11763286_at) / Fold change /veh TMEM53 (11763286_at) / RFU MAGEB2 (11727129_at) / Fold change /veh MAGEB2 (11727129_at) / RFU TMEM200A (11744735_a_at) / Fold change /veh TMEM200A (11744735_a_at) / RFU CCDC152 (11751479_a_at) / Fold change /veh CCDC152 (11751479_a_at) / RFU FAM211A (11726209_a_at) / Fold change /veh FAM211A (11726209_a_at) / RFU RGS16 (11746705_a_at) / Fold change /veh RGS16 (11746705_a_at) / RFU VCAN (11755009_s_at) / Fold change /veh VCAN (11755009_s_at) / RFU RHOB (11743442_s_at) / Fold change /veh RHOB (11743442_s_at) / RFU RGS16 (11720943_a_at) / Fold change /veh RGS16 (11720943_a_at) / RFU RGS16 (11720944_at) / Fold change /veh RGS16 (11720944_at) / RFU, VPS4B / Fold change vs veh, VPS4B / RFU, CREB1 / Fold change vs veh, CREB1 / RFU, DNAJC13 / Fold change vs veh, DNAJC13 / RFU, GNAQ / Fold change vs veh, GNAQ / RFU, CDK5R1 / Fold change vs veh, CDK5R1 / RFU, ZRANB3 / Fold change vs veh, ZRANB3 / RFU, CUL4A / Fold change vs veh, CUL4A / RFU, CCNY / Fold change vs veh, CCNY / RFU, UFL1 / Fold change vs veh, UFL1 / RFU, COG3 / Fold change vs veh, COG3 / RFU, DIAPH2 / Fold change vs veh, DIAPH2 / RFU, SKA2 / Fold change vs veh, SKA2 / RFU, AFF3 / Fold change vs veh, AFF3 / RFU, LMF1 / Fold change vs veh, LMF1 / RFU, IPO11 / Fold change vs veh, IPO11 / RFU, DFFB / Fold change vs veh, DFFB / RFU, FOXP1 / Fold change vs veh, FOXP1 / RFU, CARD8 / Fold change vs veh, CARD8 / RFU, STRN3 / Fold change vs veh, STRN3 / RFU, ADK / Fold change vs veh, ADK / RFU, RASSF2 / Fold change vs veh, RASSF2 / RFU, WIPF1 / Fold change vs veh, WIPF1 / RFU, LARP1B / Fold change vs veh, LARP1B / RFU, RASA1 / Fold change vs veh, RASA1 / RFU, RB1 / Fold change vs veh, RB1 / RFU, PPFIA1 / Fold change vs veh, PPFIA1 / RFU, MAT2A / Fold change vs veh, MAT2A / RFU, CCT5 / Fold change vs veh, CCT5 / RFU, WDR92 / Fold change vs veh, WDR92 / RFU, CUX1 / Fold change vs veh, CUX1 / RFU, TTC7A / Fold change vs veh, TTC7A / RFU, TMEM135 / Fold change vs veh, TMEM135 / RFU, DEPTOR / Fold change vs veh, DEPTOR / RFU, CPM / Fold change vs veh, CPM / RFU, DNAJB6 / Fold change vs veh, DNAJB6 / RFU, CACNA2D3 / Fold change vs veh, CACNA2D3 / RFU, DTX4 / Fold change vs veh, DTX4 / RFU, TFCP2 / Fold change vs veh, TFCP2 / RFU, GMCL1 /// GMCL1P1 / Fold change vs veh, GMCL1 /// GMCL1P1 / RFU, AEBP2 / Fold change vs veh, AEBP2 / RFU, SNHG1 /// SNORD22 /// SNORD25 /// SNORD26 /// SNORD27 /// SNORD28 /// SNORD29 /// SNORD31 / Fold change vs veh, SNHG1 /// SNORD22 /// SNORD25 /// SNORD26 /// SNORD27 /// SNORD28 /// SNORD29 /// SNORD31 / Fold change (Aza/veh), C12orf56 (ProbeSet 11735607_a_at) / Fold change (ACY-1035/veh), C12orf56 (ProbeSet 11735607_a_at) / Fold change (Aza/veh), FGFR1OP (ProbeSet 11751329_s_at) / Fold change (ACY-1035/veh), FGFR1OP (ProbeSet 11751329_s_at) / Fold change (Aza/veh), VPS36 (ProbeSet 11739960_a_at) / Fold change (ACY-1035/veh), VPS36 (ProbeSet 11739960_a_at) / RFU SYPL1 (11715823_x_at) / Fold change /veh SYPL1 (11715823_x_at) / RFU IGFBP7 (11715501_s_at) / Fold change /veh IGFBP7 (11715501_s_at) / RFU REEP3 (11722064_at) / Fold change /veh REEP3 (11722064_at) / RFU IGLL1 (11728026_x_at) / Fold change /veh IGLL1 (11728026_x_at): dose or concentration left out as unconfirmed
Settings: ProbeSet 11730252_s_at; LIST B

Compound: Nc1ncn([C@@H]2O[C@H](CO)[C@@H](O)[C@H]2O)c(=O)n1 [azacitidine]
- RFU, AHCTF1: 220.95 RFU

Reference: paper PMC5218480 (PLoS ONE, 2017)
